This is an account of results in PubChem BioAssay AID608 (Sanford-Burnham Center for Chemical Genomics, 2007).

pKd: −log10 of the molar value. The source made the active and inactive calls. No rule for the calls is given here.

The target in the experiment is Peptidyl-prolyl cis-trans isomerase FKBP1A (Homo sapiens) (UniProt P62942). Put plainly: FKBP12 binders, biophysical, NMR detection (AID 608). Conditions: NMR binding, purified FKBP12.
Peptidyl-prolyl cis-trans isomerase FKBP1A (Homo sapiens), sequence (P62942 whole entry, looked up): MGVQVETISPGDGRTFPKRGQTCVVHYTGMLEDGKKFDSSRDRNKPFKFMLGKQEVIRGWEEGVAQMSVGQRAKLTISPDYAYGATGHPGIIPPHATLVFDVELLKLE
The Kd is the constant that tells how readily two partners part at equilibrium. On to `COc1cc2c(cc1-c1cc3cc4ccoc4cc3oc1=O)OCO2`, for which the Kd is > 4 mM (inactive).

For `CSc1nsc(SCc2cnc(C)nc2N)n1`, the Kd was > 4 mM (inactive).

In the case of `CC(C)Oc1ccc(NC(N)=O)cc1`, the Kd was > 4 mM (inactive).

Regarding `NC(=O)CN1CCC(c2nc3ccccc3[nH]2)CC1`, the Kd was > 4 mM (inactive).

As for `COc1ccc(C2(C)CC(=O)NC2=O)cc1` (centres undefined), the Kd was > 4 mM (inactive).

Turning to `CN1CCC(=NNC(=O)c2ccco2)CC1`, the Kd was > 4 mM (inactive).

Turning to `O=C(O)CCCN1CNC(=S)NC1`, the Kd is > 4 mM (inactive).

As for `O=C(O)CCn1c(=O)oc2ccccc21`, the Kd was > 4 mM (inactive).

Consider `Nc1nc(NCc2ccco2)nn1-c1ccccc1`, for which the Kd is > 4 mM (inactive).

Take `Nc1ncnc2c1ncn2[C@@H]1O[C@H](CO)[C@@H](O)[C@H]1O`: the Kd is > 4 mM (inactive).

For the molecule `Cc1nnc(NCc2ccc3c(c2)OCO3)[nH]c1=O`, the Kd was > 4 mM (inactive).

In the case of `CNC(=O)C(=O)Nc1ccc(C)c(C)c1`, the Kd was > 4 mM (inactive).

Consider `CN=C1SC(CC(=O)Nc2ccc(O)cc2)C(=O)N1C` (centres undefined), for which the Kd is > 4 mM (inactive).

As for `C=CCN1CC[C@]23c4c5ccc(O)c4OC2C(=O)CC[C@@]3(O)[C@H]1C5` (some centres undefined), the Kd was > 4 mM (inactive).

`Cc1cc(C)nc(Nc2n[nH]c(Cc3ccccc3)n2)n1`: the Kd is > 4 mM (inactive).

As for `Nc1cc(=O)[nH]c(=O)n1-c1ccccc1`, the Kd is > 4 mM (inactive).

In the case of `CC(C)=CCOc1cc2oc(=O)ccc2cc1O`, the Kd was > 4 mM (inactive).

Consider `Cc1cc(C)nc(/N=C(/N)N2CCN(C)CC2)n1`, for which the Kd is > 4 mM (inactive).

Turning to `O=C(O)[C@H](O)[C@@](O)(Cc1ccc(O)cc1)C(=O)O`, the Kd is > 4 mM (inactive).

Consider `NC1=NC(=O)/C(=C/c2ccc(O)c(Cl)c2)S1`, for which the Kd was > 4 mM (inactive).

Regarding `Nc1nnc(SCc2ccccc2Cl)s1`, the Kd is > 4 mM (inactive).

For the molecule `COc1ccc(C2NC(C(=O)O)CS2)cc1` (centres undefined), the Kd was > 4 mM (inactive).

Consider `CC(=O)Nc1ccc(-c2ccc3nncn3n2)cc1`, for which the Kd is > 4 mM (inactive).

In the case of `O=C(NC(O)C(=O)c1ccccc1)c1ccco1` (centres undefined), the Kd is > 4 mM (inactive).

`O=C1C=CC2=C3c4cc(O)c(O)cc4CC3(O)COC2=C1O` (centres undefined): the Kd is > 4 mM (inactive).

`OCCNc1nc2ccc(Cl)cc2[nH]1`: the Kd was > 4 mM (inactive).

Take `C[C@H]1[C@H]2CCC3C4CC=C5C[C@@H](N(C)C)CC[C@]5(C)C4CC[C@@]32CN1C` (some centres undefined): the Kd was > 4 mM (inactive).

As for `Cc1cc(O)cc(O)c1C(=O)O`, the Kd was > 4 mM (inactive).

Regarding `Nc1cccc(F)c1-c1ncon1`, the Kd is > 4 mM (inactive).

For `C/C=C(\C)C(=O)O[C@@H]1c2c(ccc3ccc(=O)oc23)OC(C)(C)[C@@H]1OC(C)=O`, the Kd is > 4 mM (inactive).

`Cc1cc(C)c2ccc[n+]([O-])c2c1O`: the Kd was > 4 mM (inactive).

As for `Cc1nc2ccccc2c2c1C(=O)N(N)C2=O`, the Kd is > 4 mM (inactive).

As to `NCc1ccc(N2CCOCC2)cc1`, the Kd was > 4 mM (inactive).

Regarding `COC(=O)c1noc(C)c1C(C)=O`, the Kd was > 4 mM (inactive).

Consider `O=C(O)Cn1cnc2ccccc2c1=O`, for which the Kd was > 4 mM (inactive).

Take `Cn1ccc(NC(=S)NC2CCCC2)n1`: the Kd was > 4 mM (inactive).

Regarding `Cn1ccnc1C(O)c1ccccc1` (centres undefined), the Kd was > 4 mM (inactive).

For the molecule `CC(=O)Nc1ccc(NC2SC(=O)NC2=O)cc1` (centres undefined), the Kd was > 4 mM (inactive).

On to `OC1CCN(Cc2ccc[nH]2)CC1`, for which the Kd is > 4 mM (inactive).

With `Cc1sc(N)c(C(N)=O)c1C`, the Kd was > 4 mM (inactive).

Consider `CSc1nnc(CN2CCSCC2)n1C`, for which the Kd is > 4 mM (inactive).

Regarding `Cc1nc(CC(=O)O)c(-c2ccccc2)s1`, the Kd is > 4 mM (inactive).

Turning to `Nc1cccc(NC(=O)c2cccs2)c1`, the Kd is > 4 mM (inactive).

Take `O=C(Nc1ccccn1)c1cc(-n2cnnc2)ccc1Cl`: the Kd was > 4 mM (inactive).

For `O=C(N1CCOCC1)N1CCN(c2ccccn2)CC1`, the Kd was > 4 mM (inactive).

For the molecule `S=C(c1ccc(N2CCOCC2)cc1)N1CCOCC1`, the Kd is > 4 mM (inactive).

As for `Cc1ccc(OCC(=O)N2CCOCC2)cc1C`, the Kd entry was “inactive”.

Regarding `CC(C)CC(=O)Nc1c[nH]c(=O)[nH]c1=O`, the Kd was > 4 mM (inactive).

With `NCc1cccc2c1OCCCO2`, the Kd is > 4 mM (inactive).

As to `O=C(O)Cn1c(C(F)(F)F)nc2ccccc21`, the Kd is > 4 mM (inactive).

For the molecule `CC(=O)c1sc2nc(N)nn2c1C`, the Kd was > 4 mM (inactive).

The pKd is the Kd on a negative log10 scale, so that one unit is a factor of ten. As for `COc1cccc(NC(=O)c2cccs2)c1`, the pKd was 3.36.

For the molecule `CCCn1c(C)cc(=O)[nH]c1=O`, the Kd is > 4 mM (inactive).

On to `Nc1nc(-c2cccnc2)nn1C(=O)Cc1ccccc1`, for which the Kd is > 4 mM (inactive).

For the molecule `Clc1ccc(-c2nnc3ccccn23)cc1`, the Kd is > 4 mM (inactive).

Turning to `CC(=O)OC1CCC23C(=O)OC45CCC(C6=CC(=O)OC6)C4(C)CCC2C5CCC3(O)C1` (centres undefined), the Kd was > 4 mM (inactive).

On to `CC(=O)Nc1ccc(-c2cn3ccsc3n2)cc1`, for which the Kd was > 4 mM (inactive).

As to `Cc1cc(C(=O)NC(C)c2ccncc2)no1` (centres undefined), the Kd was > 4 mM (inactive).

Consider `COc1cccc2onc(N)c12`, for which the Kd is > 4 mM (inactive).

With `CC1(C)CC2C1CCC1(C)OC2(C)CCC1O` (centres undefined), the Kd is > 4 mM (inactive).

On to `CC(C)c1ccc2c(c1)CCC1C(C)(C(N)=O)CCCC21C` (centres undefined), for which the Kd was > 4 mM (inactive).

As to `COc1cccc(NC(=O)c2nc3ncccn3n2)c1`, the Kd was > 4 mM (inactive).

With `O=C(CO)N/N=C/c1ccccc1F`, the Kd is > 4 mM (inactive).

Regarding `O=C(COc1ccc2c(c1)OCO2)N1CCOCC1`, the Kd result was “inactive”.

Take `Cc1c(N=CN2CCOCC2)c(=O)n(C)c(=O)n1C`: the Kd was > 4 mM (inactive).

As to `O=C1CS/C(=N/N=C2CCCC2)N1`, the Kd was > 4 mM (inactive).

For `Nc1nc2ncc(=O)[nH]c2c(=O)[nH]1`, the Kd is > 4 mM (inactive).

For the molecule `COc1ccc(-c2nnsc2N)cc1`, the Kd is > 4 mM (inactive).

Take `O=C(O)CCc1c[nH]c2ccccc12`: the Kd was > 4 mM (inactive).

Regarding `NC(Cc1c[nH]c2ccccc12)C(=O)O` (centres undefined), the Kd is > 4 mM (inactive).

`CC[C@H](CCC(C)[C@H]1CCC2C3CCC4C[C@@H](O)CC[C@]4(C)C3CC[C@@]21C)C(C)C` (some centres undefined): the Kd was > 4 mM (inactive).

In the case of `COc1ccc(-c2coc3cc(O)ccc3c2=O)c(OC)c1`, the Kd is > 4 mM (inactive).

As for `Oc1ccc(-n2cncn2)cc1`, the Kd is > 4 mM (inactive).

Take `CC(C)CCCC(C)C1CCC2C3CC(=O)[C@H]4C[C@@H](O)CC[C@]4(C)C3CC[C@]12C` (some centres undefined): the Kd was > 4 mM (inactive).

`Cc1cc(=O)c2c(O)c(C)c(O)cc2o1`: the Kd is > 4 mM (inactive).

As for `CNC[C@@H](O)c1ccc(O)c(O)c1`, the Kd is > 4 mM (inactive).

For `COc1ccc(OCC(=O)N2CCOCC2)cc1`, the Kd entry is “inactive”.

On to `NC(=O)CN1CC(c2ccccc2)CC1=O` (centres undefined), for which the Kd was > 4 mM (inactive).

Take `COC(=O)c1cccc(Cn2nnc3ccccc3c2=O)c1`: the Kd was > 4 mM (inactive).

For the molecule `CC(=O)Nc1ccc(S(=O)(=O)N2CCN=C2C)cc1`, the Kd is > 4 mM (inactive).

Regarding `Cc1ccc(Cl)cc1NS(=O)(=O)N1CCCCC1`, the Kd entry is “inactive”.

In the case of `NC(=O)CCn1ncc2ccccc21`, the Kd is > 4 mM (inactive).

As to `O=c1[nH]c(=S)c2c(n1-c1ccccc1)CCC2`, the Kd is > 4 mM (inactive).

For the molecule `Cc1ccccc1N1C(=O)CC(=O)NC1=O`, the Kd was > 4 mM (inactive).

In the case of `NC(=O)c1ccc(-c2csnn2)cc1`, the Kd is > 4 mM (inactive).

Regarding `Nc1c(S(=O)(=O)c2ccccc2)csc1C(=O)O`, the Kd was > 4 mM (inactive).

Regarding `NCc1n[nH]c(=O)c2ccccc12`, the Kd was > 4 mM (inactive).

With `COC(=O)C[C@H]1C2(C)CC34OC5(C)O[C@@]6([C@H](OC(C)=O)C(OC(C)=O)[C@]7(C)C(/C(=C(/O)C(C)C)C(=O)O[C@H]7c7ccoc7)[C@@]6(O5)[C@H](OC(C)=O)[C@@]3(O)C2OC(=O)C(C)C)[C@]14C` (some centres undefined), the Kd was > 4 mM (inactive).

As for `CC(=O)Nc1ccc2c(c1)n(C)c(=O)n2C`, the Kd is > 4 mM (inactive).

In the case of `CC(=O)N/N=C(\C)c1cccc(N)c1`, the Kd was > 4 mM (inactive).

On to `O=C1C2CC=CCC2C(=O)N1c1ccccc1O` (centres undefined), for which the Kd is > 4 mM (inactive).

In the case of `O=C1CSC(=Nc2ccc(F)cc2)N1`, the Kd was > 4 mM (inactive).

Turning to `C/C=C(\C)c1nnc(NC(=O)c2ccco2)s1`, the Kd was > 4 mM (inactive).

For the molecule `COc1ccc(-c2cc3nc4n(c(=O)c3s2)CCC4)cc1`, the Kd is > 4 mM (inactive).

Regarding `Nc1ncnc2c1ncn2C1C[C@H](O)[C@@H](CO)O1` (some centres undefined), the Kd was > 4 mM (inactive).

On to `O=C1CSC(=Nc2ccc(C(=O)O)cc2)N1`, for which the Kd was > 4 mM (inactive).

For `COc1ccc([C@H]2Oc3c(I)c(OC)cc(OC)c3C[C@@H]2O)cc1OC`, the Kd was > 4 mM (inactive).

For the molecule `CC(=O)NC(C)(C)C1CC=C(C)/C(=N\O)C1` (centres undefined), the Kd is > 4 mM (inactive).

Turning to `O=C(O)Cn1c(=O)sc2ccccc21`, the Kd was > 4 mM (inactive).

Regarding `Cc1nc2ccc(C(=O)N3CCSCC3)cc2s1`, the Kd was > 4 mM (inactive).

As for `O=C(Nc1ccc(F)cc1F)c1ccco1`, the Kd is > 4 mM (inactive).

For `CC(=O)Nc1ccc(S(=O)(=O)Nc2cc(C)on2)cc1`, the Kd was > 4 mM (inactive).

Take `CC1CCCN(C/C(O)=C(\C#N)c2nc3ccccc3[nH]2)C1` (centres undefined): the Kd was > 4 mM (inactive).

`Nc1ccc(N2CCOCC2)cc1`: the Kd was > 4 mM (inactive).
